Measurements published in patent EP2100894A1, “Pyridopyrimidines used as Plk1 (polo-like kinase) inhibitors” (4SC AG, priority 2008, dated 2009).

Target: T1, PIk1 (Homo sapiens, UniProt P53350)
T1 construct: His tag (histidine tag) (N); made in house; host or cells: SF9 insect cells
Experiment: PIk1 kinase activity inhibition assay (33P incorporation into alpha casein, flash plates)
Assay type: biochemical
Conditions: recombinant N-terminally histidine-tagged PIk1, alpha casein as substrate, 100 nM Li-ATP, 80 minutes at 30°C
Summary of the method: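 N-terminally His-tagged human Plk1 from SF9 cells (50–100 ng/well) phosphorylated alpha casein with 100 nM Li-ATP plus 33P-ATP in HEPES pH 7.5, MgCl2/MnCl2 buffer for 80 minutes at 30°C. After H3PO4 stop and washing, casein-bound 33P was counted on scintillator-coated flash plates to derive IC50.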

T1 sequence (P53350 whole entry): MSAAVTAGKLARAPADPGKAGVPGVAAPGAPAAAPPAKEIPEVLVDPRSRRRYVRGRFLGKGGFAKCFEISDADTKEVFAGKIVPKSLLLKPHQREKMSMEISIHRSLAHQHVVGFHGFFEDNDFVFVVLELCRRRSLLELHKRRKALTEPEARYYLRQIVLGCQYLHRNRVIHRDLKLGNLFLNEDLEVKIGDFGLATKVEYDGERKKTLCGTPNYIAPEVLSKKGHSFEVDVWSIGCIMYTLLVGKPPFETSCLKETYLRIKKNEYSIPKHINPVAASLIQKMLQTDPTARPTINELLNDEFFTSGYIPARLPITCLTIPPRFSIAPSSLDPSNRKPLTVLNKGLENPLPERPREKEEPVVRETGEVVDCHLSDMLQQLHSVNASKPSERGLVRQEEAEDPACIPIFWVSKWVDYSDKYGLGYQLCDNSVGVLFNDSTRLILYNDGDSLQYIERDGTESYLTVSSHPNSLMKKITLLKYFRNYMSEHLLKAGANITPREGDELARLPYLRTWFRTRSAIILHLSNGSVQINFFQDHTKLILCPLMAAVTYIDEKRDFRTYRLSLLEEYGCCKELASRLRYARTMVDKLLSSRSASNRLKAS

IC50: < 10 nM
SMILES: COc1cc(C(=O)NC2CCN(C)CC2)ccc1Nc1ncc2c(n1)c(-c1cc[nH]c1)c(OCC1CC1)c(=O)n2C [Example 76, 4-{[7-(cyclopropylmethoxy)-5-methyl-6-oxo-8-(1H-pyrrol-3-yl)-5,6-dihydro-pyrido[3,2-d]pyrimidin-2-yl]amino}-3-methoxy-N-(1-methylpiperidin-4-yl)benzamide]
